{"source": "patent US6538001B1", "about": "“Crystalline modification of 5-fluoro-1-(tetrahydro-2-furyl) uracil and complex compounds based thereon, producing antineoplastic effect” (priority 2001, dated 2003)", "key": {"[1]": {"tested_on": "uterine neck cancer cells", "assay": "Cytotoxicity (MTT) on a culture of uterine neck cancer cells", "type": "cell-based", "design": "Effect on the proliferation of cancer cells: dose or concentration left out as unconfirmed", "details": "for Optical density at 540 nm: 4 days", "experimental": "The determination was carried out by following the known procedure (Mosmann N. T., J. Immunology Methods, 1983, vol. 65, 55-63, Carmichel J. et al., Cancer Res., 1987, vol. 47, 936-946) on a culture of uterine neck cancer cells. The cells were grown at 37° C. on the RPMI 1640 medium with additives of a 10%embryonal serum of cows and 200 u/ml of gentamicin. CO2 content in the incubator atmosphere was 10%. The cells which were in the exponential phase of growth were suspended with trypsin and inoculated in an amount of 4×10^3 into each socket of a 96-socket dish for monolayer cultures. Solutions of samples of the preparations to be investigated were prepared by dissolving 23 mg of each preparation in 10 ml of a culture broth, 10^−2 M solutions being thus obtained. These were starting solutions for obtaining solutions of a lower concentration by diluting them with the culture broth. Directly before adding the solutions to the cells, these solutions were sterilized by filtering through millipore filters. One day after the inoculation of the cells, solutions of samples of the preparations to be investigated in prescribed concentrations were added into each socket of the dish. After that the cells grew for another 4 days.\nAll in all, 9 concentrations of each of the 4 samples of the investigated preparations were tested.\nQuantitative estimation of the cytotoxicity of the investigated preparations was carried out with the use of 3-(4,5-dimethylthiazol-2-yl)-2,5-diphenyltetrazolium bromide (MTT). […] 0.5 mg/ml was added into each socket of the dish 4 hours before the completion of cells cultivation. On completion of the incubation, the culture broth was removed from the dish sockets, the formasane crystals were dissolved, and the cells were scanned on an automatic Multiscan MCC/340P reader at the 540 nm wavelength. The results were calculated in percent of the cells subjected to the effect of the investigated preparations, absorbed at 540 nm, as against the absorption of control cells.\nThe action of each concentration of the investigated preparations on cancer cells was estimated from the results of 4-6 independent experiments, treated by methods of mathematical statistics."}, "[2]": {"assay": "Determination of solubility (USP XXIII article Solubility)", "type": "physicochemical", "experimental": "The solubility was determined in accordance with the requirements set out in the article “Solubility”, USPXXTIII (1995, p. 2071)."}}}
{"smiles": "O=c1[nH]c(=O)n(C2CCCO2)cc1F", "note": "(stereo not drawn) [Form V of tegafur, 5-fluoro-1-(tetrahydro-2-furyl)uracil]", "values": [{"measurement": "Optical density at 540 nm", "setting": "[1]; 5 × 10^−3 M (on conversion to tegafur), MTT", "result": "0.25 ± 0.02"}, {"measurement": "Optical density at 540 nm", "setting": "[1]; 5 × 10^−4 M (on conversion to tegafur), MTT", "result": "0.44 ± 0.05"}, {"measurement": "Optical density at 540 nm", "setting": "[1]; 5 × 10^−5 M (on conversion to tegafur), MTT", "result": "0.70 ± 0.03"}, {"measurement": "Optical density at 540 nm", "setting": "[1]; 5 × 10^−6 M (on conversion to tegafur), MTT", "result": "0.73 ± 0.03"}, {"measurement": "Optical density at 540 nm", "setting": "[1]; 10^−2 M (on conversion to tegafur), MTT", "result": "0.16 ± 0.01"}, {"measurement": "Optical density at 540 nm", "setting": "[1]; 10^−3 M (on conversion to tegafur), MTT", "result": "0.35 ± 0.02"}, {"measurement": "Optical density at 540 nm", "setting": "[1]; 10^−4 M (on conversion to tegafur), MTT", "result": "0.56 ± 0.06"}, {"measurement": "Optical density at 540 nm", "setting": "[1]; 10^−5 M (on conversion to tegafur), MTT", "result": "0.73 ± 0.08"}, {"measurement": "Optical density at 540 nm", "setting": "[1]; 10^−6 M (on conversion to tegafur), MTT", "result": "0.79 ± 0.08"}, {"measurement": "Inhibition of proliferation more intensive than tegafur", "setting": "[1]; at the concentration of 10^−4 M, relative to tegafur", "result": 70, "unit": "%"}, {"measurement": "Concentration at which the proliferation of cells is inhibited", "setting": "[1]; uterine neck cancer cells, MTT", "result": 50, "unit": "µM"}, {"measurement": "Solubility compared with pharmacopeial tegafur", "setting": "[2]; in words", "result": "higher than the solubility of pharmacopeial tegafur"}, {"measurement": "Solubility, % with respect to tegafur", "setting": "[2]; temperature of solvent 20 °C", "result": 187.5, "unit": "%"}]}
{"smiles": "O=c1[nH]c(=O)n(C2CCCO2)cc1F", "note": "(stereo not drawn) [pharmacopeial tegafur, 5-fluoro-1-(tetrahydro-2-furyl)uracil, reference compound]", "values": [{"measurement": "Optical density at 540 nm", "setting": "[1]; 5 × 10^−3 M (on conversion to tegafur), MTT, listed as Pharmacopeial tegafur", "result": "0.28 ± 0.005"}, {"measurement": "Optical density at 540 nm", "setting": "[1]; 5 × 10^−4 M (on conversion to tegafur), MTT, listed as Pharmacopeial tegafur", "result": "0.56 ± 0.12"}, {"measurement": "Optical density at 540 nm", "setting": "[1]; 5 × 10^−5 M (on conversion to tegafur), MTT, listed as Pharmacopeial tegafur", "result": "0.80 ± 0.10"}, {"measurement": "Optical density at 540 nm", "setting": "[1]; 5 × 10^−6 M (on conversion to tegafur), MTT, listed as Pharmacopeial tegafur", "result": "0.76 ± 0.08"}, {"measurement": "Optical density at 540 nm", "setting": "[1]; 10^−2 M (on conversion to tegafur), MTT, listed as Pharmacopeial tegafur", "result": "0.26 ± 0.04"}, {"measurement": "Optical density at 540 nm", "setting": "[1]; 10^−3 M (on conversion to tegafur), MTT, listed as Pharmacopeial tegafur", "result": "0.45 ± 0.06"}, {"measurement": "Optical density at 540 nm", "setting": "[1]; 10^−4 M (on conversion to tegafur), MTT, listed as Pharmacopeial tegafur", "result": "0.81 ± 0.13"}, {"measurement": "Optical density at 540 nm", "setting": "[1]; 10^−5 M (on conversion to tegafur), MTT, listed as Pharmacopeial tegafur", "result": "0.81 ± 0.09"}, {"measurement": "Optical density at 540 nm", "setting": "[1]; 10^−6 M (on conversion to tegafur), MTT, listed as Pharmacopeial tegafur", "result": "0.76 ± 0.05"}, {"measurement": "Effect on the proliferation of cancer cells", "setting": "[1]; range of concentrations of 10^−6", "result": "does not affect the proliferation of cancer cells"}, {"measurement": "solubility", "setting": "[2]; 20 °C, thermodynamic from solid, temperature of solvent 20 °C", "result": 8000, "unit": "µg/mL"}]}
